{"source": "patent US11680086B2", "about": "“Lipopeptide for potently inhibiting HIV, derivative thereof, pharmaceutical composition thereof and use thereof” (Institute of Pathogen Biology, Chinese Academy of Medical …, priority 2017, dated 2023)", "key": {"[1]": {"system": "SIV pseudoviruses SIVpbj and SIV239", "assay": "inhibition of SIV pseudoviruses", "format": "cell-based", "method": "(§1) The supernatant was discarded from the wells. […] Inhibition rate (%) and IC50 value were calculated.\n(§2) In order to further reflect the antiviral advantages of the potent lipopeptides of the present invention, their inhibitory activity against HIV-2 and SIV was determined in the example. The methods of antiviral activity assays used were described in the literatures published by the present inventors (see the References 13 and 30 listed in the Background Art). The molecular cloning plasmid pROD of the HIV-2 strain ROD (HIV-2ROD) was kindly provided by Professor Nuno Taveira from the University of Lisbon, Portugal, and the plasmids expressing the SIV strain SIVpbj (SIVPBJ) and SIV239 envelope proteins (pSIVpbj-Env and pSIV239, respectively) were kindly provided by Professor Xu Jianqing from the Fudan University. The preparation of the infectious ROD was the same as that of the infectious JRCSF in the above section 2.1, and the pseudoviruses SIVpbj and SIV239 were prepared by a method same as that described in the above Examples 2 and 3."}, "[2]": {"system": "HXB2-mediated cell fusion (HL2/3 effector cells, TZM-b1 target cells)", "format": "cell-based, HIV-1", "quoted_text": "HIV-1 mediated cell fusion inhibition assay: the effector cells (HL2/3 cells) and target cells (TZM-b1 cells) were provided by the AIDS Reagent Program of National Institutes of Health (NIH) (catalog numbers: 1294 and 8129, respectively). The both cells were adherent cells and were cultured in a DMEM cell culture medium containing ampicillin/streptomycin double antibiotics and 10% fetal bovine serum (FBS). The TZM-b1 was first added to a 96-well cell culture plate (1×10^4 cells/well), and cultured overnight at 37° C. and 5% CO2. The test substance was diluted with the DMEM cell culture medium by 3 folds and mixed with HL2/3 effector cells (3×10^4 cells/well), then added to the TZM-b1 target cells, and further cultured for 6 hours to fully fuse. The activity of luciferase (relative fluorescence units, RLU) was then determined using a luciferase reporter gene kit from Promega company according to the instructions. The inhibition rate of each sample at each concentration was calculated, and the half effective inhibitory concentration (IC50 value) was calculated using GraphPad Prism Software 2.01."}, "HIV-1 strain JRCSF": {"system": "HIV-1 strain JRCSF", "format": "cell-based", "method": "(§3) Inhibition rate (%) and IC50 value were calculated."}, "[3]": {"system": "NL4-3 pseudovirus carrying T-20 resistance mutation site of NHR", "assay": "inhibition of T-20 resistant strains", "format": "cell-based, HIV-1", "settings": "strains with single or double mutations"}, "[4]": {"system": "HIV-1 strain NL4-3 pseudovirus (D36G mutant)", "format": "cell-based", "method": "as §1"}, "[5]": {"system": "HIV-2 strain ROD (infectious)", "assay": "inhibition of HIV-2", "format": "cell-based", "settings": "HIV-2 ROD", "method": "as §3, §2"}, "[6]": {"molecular_target": "N39 (NHR-derived polypeptide of gp41) (Human immunodeficiency virus type 1 group M subtype B, UniProt P04578)", "sequence (P04578 528-566)": "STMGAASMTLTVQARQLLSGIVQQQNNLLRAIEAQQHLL", "format": "binding, HIV-1", "settings": "10 μM each, PBS pH 7.2", "method": "(§4) The circular dichroism spectrophotometer was Jasco-815 by JASCO Inc., and the assay method was referred to the papers published by the inventors (see the References 18 and 30 listed in the Background Art). […] The N39 and an inhibitor were separately dissolved in a phosphate buffered saline (PBS) to prepare a PBS solution (pH 7.2) of a concentration of 20 μM. The N39 was mixed with an inhibitor at a volume ratio of 1:1 (final concentration of 10 μM for each), the mixed sample was placed at 37° C. for 30 minutes to fully react, and then the helix content and Tm value of the resultant complex were measured by the circular dichroism spectrophotometer. The scan wavelength range of the device was 195-260 nm with a wavelength interval of 1 nm, and the values measured by scanning for three times were averaged. Based on the CD signals, the interaction between the polypeptides and the helix content were determined. Then, the sample for CD signal measurement was transferred to the temperature scanning sample cell, the program of the CD device was set to temperature scanning with a detection wavelength of 220 nm and scanning range of 20-98° C., and the program scan was performed to obtain the curve of the CD signals vs temperature, based on which the Tm value was calculated. Based on the Tm value, the stability of the formed helical structure of the inhibitor and N39 was judged."}, "[7]": {"system": "35 HIV-1 pseudoviruses (subtypes A, B, B', C, G, A/C, A/E, B/C)", "settings": "for IC50: read-out: average IC50 for inhibition of various types of HIV-1 pseudoviruses, average over 35 pseudoviruses", "description": "HIV-1 pseudovirus-mediated cell entry inhibition assay: basic steps included: (1) Preparation of HIV-1 pseudovirus: the 293T cells were co-transfected with a plasmid expressing the envelope protein (Env) of HIV-1 strain NL4-3 (i.e., a recombinant expression plasmid obtained by inserting the gene encoding the envelope protein (ENV) of the D36G mutant of the HIV-1 strain NL4-3 in the Table 2 of the Reference 14 listed in the Background Art into the vector pcDNA3.1(−)) and the HIV-1 backbone plasmid pSG3Δenv (provided by the AIDS Reagent Program of National Institutes of Health (NIH), catalog number: 11051) by using a cell transfection reagent, incubated in a cell incubator of 37° C. and 5% CO2 for 6 hours, and then the medium was changed, and the cells were further incubated for 48 hours. The cell culture supernatant containing pseudovirus particles was pipetted and filtered with a 0.45 μm filter to collect the supernatant, then 20% fetal bovine serum (FBS) was added thereto, the final solution was transferred to a polypropylene tube, and stored at −80° C. for ready for use or directly subjected to virus titration. (2) Titration of HIV-1 pseudovirus: the viruses were diluted by 5 folds in a 96-well plate, and 4 replicate wells with 8 gradients were set to a final volume of 100 microliters. The TZM-b1 cells were trypsinized and counted, and the cells were diluted to 1×10^5 cells/ml with DMEM complete medium; 100 μl of cells dilution (containing 15 μg/ml DEAE-dextran) per well were added and cultured at 37° C. and 5% CO2 for 48 hours. The 96-well plate was then taken from the cell culture incubator. The supernatant was discarded from the wells. To each well, 30 μl of a cell lysate was added, and after 10 minutes, 100 μl of a luciferase detection reagent was added. 100 μl of liquid was pipetted from each well and added to a corresponding 96-well white plate, and the luminescence values were read by a microplate photometer. The virus titer was calculated by the Reed-Muench method. (3) Antiviral activity assay: the test substance was dissolved in DMSO and diluted with a cell culture solution by 3 folds, and placed in a 96-well plate at a final volume of […]. 50 μl of a DMEM medium was used in place of the test substance as a negative control. To each well, 100 μl of TZM-b1 target cells solution (containing 15 μg/ml DEAE-dextran) at a concentration of 1×10^5 cells/ml was added, and then 50 μl (corresponding to 100 TCID50 per well) of the HIV-1 pseudovirus obtained above was added. After incubation at 37° C. and 5% CO2 for 48 hours, the relative light units (RLU) of each well were determined by using a luciferase detection reagent (Promega). Inhibition rate (%) and IC50 value were calculated.\nAmong them, the A, B and C subtypes were the main viruses causing AIDS epidemic in the world, while B/C and A/E recombinant viruses were the main viruses in China. […] Among the Env expression plasmids used for the preparation of pseudoviral, except that the Env expression plasmids used for preparation of PVO, Du156 and CAP 210.2.00.E8 were obtained from the AIDS Reagent Program of NIH in the United states, other plasmids were preserved by the laboratory of Prof. He Yuxian, Institute of Pathogen Biology, Chinese Academy of Medical Sciences, please see the References 13, 14 and 18 listed in the Background Art and articles of Chong et al. (Chong H, Yao X, Zhang C, Cai L, Cui S, Wang Y, He Y. Biophysical property and broad anti-HIV activity of Albuvirtide, a 3-maleimimidoproprotionic acid-modified peptide fusion inhibitor. PLoS One, 2012; 7 (3): e 32599). The preparation of the pseudovirus and the antiviral assay were the same as those in Example 2.1 of Example 2 (HIV-1 pseudovirus-mediated cell entry inhibition assay)."}, "[8]": {"assay": "circular dichroism secondary structure analysis of the inhibitors themselves", "format": "physicochemical", "settings": "10 μM, 20 μM and 40 μM in PBS", "method": "as §4\nFor easy analysis, the α-helix content and the Tm value of the inhibitors were measured at concentrations of 10 μM, 20 μM, and 40 μM (PBS solution), respectively."}, "NL4-3WT pseudovirus": {"system": "NL4-3WT pseudovirus", "settings": "wild type NL4-3WT", "description": "HIV-1 pseudovirus-mediated cell entry inhibition assay: basic steps included: (1) Preparation of HIV-1 pseudovirus: the 293T cells were co-transfected with a plasmid expressing the envelope protein (Env) of HIV-1 strain NL4-3 (i.e., a recombinant expression plasmid obtained by inserting the gene encoding the envelope protein (ENV) of the D36G mutant of the HIV-1 strain NL4-3 in the Table 2 of the Reference 14 listed in the Background Art into the vector pcDNA3.1(−)) and the HIV-1 backbone plasmid pSG3Δenv (provided by the AIDS Reagent Program of National Institutes of Health (NIH), catalog number: 11051) by using a cell transfection reagent, incubated in a cell incubator of 37° C. and 5% CO2 for 6 hours, and then the medium was changed, and the cells were further incubated for 48 hours. The cell culture supernatant containing pseudovirus particles was pipetted and filtered with a 0.45 μm filter to collect the supernatant, then 20% fetal bovine serum (FBS) was added thereto, the final solution was transferred to a polypropylene tube, and stored at −80° C. for ready for use or directly subjected to virus titration. […] The TZM-b1 cells were trypsinized and counted, and the cells were diluted to 1×10^5 cells/ml with DMEM complete medium; 100 μl of cells dilution (containing 15 μg/ml DEAE-dextran) per well were added and cultured at 37° C. and 5% CO2 for 48 hours. […]"}, "[9]": {"system": "HIV-1 strain NL4-3 (NL4-3D36G)", "assay": "antiviral activity in serum of macaque after subcutaneous injection", "format": "in vivo, macaques (rhesus monkeys)", "settings": "3 mg/kg subcutaneous", "method": "The specific method was as follows: 6 experimental macaques (rhesus monkeys) were selected, half male and half female, aged 3-4 years old, weighing 3.4-4.7 kg. […] The serum was separated according to a conventional method. The injection interval of each inhibitor was more than 2 weeks to ensure that there was no residue of the previous analyte. The serum activity against the HIV-1 strain NL4-3 (NL4-3D36G) was measured according to the experimental method of the pseudovirus-based assay in the above examples. The serum was diluted by 3 folds. […] Therefore, the lipopeptides of the present invention were not only potent but also were long-lasting effective."}}, "note": "Like-named read-outs stand apart in the source and are kept apart here. Peptide text beside a SMILES is read from it. * marks the point of attachment. Palmitoyl = CCCCCCCCCCCCCCCC(=O)*"}
{"compound": "CCCCCCCCCCCCCCCC(=O)NCCCC[C@H](NC(=O)[C@H](CCC(=O)O)NC(=O)[C@H](CC(C)C)NC(=O)[C@H](CCCCN)NC(=O)[C@H](CCCCN)NC(=O)[C@H](CC(C)C)NC(=O)[C@H](CCC(=O)O)NC(=O)[C@H](CCC(=O)O)NC(=O)[C@H](CCC(=O)O)NC(=O)[C@H](CC(N)=O)NC(=O)[C@H](CCCCN)NC(=O)[C@H](CCCCN)NC(=O)[C@H](CCC(N)=O)NC(=O)[C@H](CCC(N)=O)NC(=O)[C@H](CCC(=O)O)NC(=O)[C@H](CCC(=O)O)NC(=O)[C@H](CO)NC(=O)[C@H](CCCCN)NC(=O)[C@H](CCCCN)NC(=O)[C@@H](NC(=O)[C@H](CC(C)C)NC(=O)[C@H](CCC(=O)O)NC(=O)[C@H](CCC(=O)O)NC(=O)[C@@H](NC(=O)[C@H](CC(C)C)NC(=O)[C@H](CO)NC(=O)[C@@H](NC(=O)[C@H](Cc1ccc(O)cc1)NC(C)=O)[C@@H](C)O)[C@@H](C)CC)[C@@H](C)CC)C(N)=O", "note": "[LP-50] (Ac-YTSLIEELIKKSEEQQKKNEEELKKLEK(Palmitoyl)-NH2)", "values": [{"measurement": "inhibitory activity against SIV (in words)", "setting": "[1]", "value": "extremely potent inhibitory activity"}, {"measurement": "IC50", "setting": "[2]; HXB2-cell fusion, read-out: IC50 for inhibiting cell fusion", "value": 0.021, "unit": "nM"}, {"measurement": "inhibitory activity as folds of that of T-20", "setting": "[2]; HXB2-mediated cell fusion, relative to T-20", "value": 1151, "unit": "folds"}, {"measurement": "inhibitory activity as folds of that of LP-40", "setting": "[2]; cell fusion, relative to LP-40", "value": 20, "unit": "folds"}, {"measurement": "inhibitory activity as folds of that of T-20", "setting": "HIV-1 strain JRCSF; JRCSF replication, relative to T-20", "value": 226, "unit": "folds"}, {"measurement": "IC50", "setting": "HIV-1 strain JRCSF; Replication of JRCSF, read-out: IC50 for inhibiting replicative virus", "value": 0.023, "unit": "nM"}, {"measurement": "inhibitory activity as folds of that of LP-40", "setting": "HIV-1 strain JRCSF; replicative virus, relative to LP-40", "value": 12, "unit": "folds"}, {"measurement": "inhibitory activity against T-20 resistant strains (in words)", "setting": "[3]", "value": "further improved by hundreds or even thousands of folds"}, {"measurement": "IC50", "setting": "[4]; Entry of NL4-3 (D36G), read-out: IC50 for inhibiting pseudovirus", "value": 0.007, "unit": "nM"}, {"measurement": "inhibitory activity as folds of that of T-20", "setting": "[4]; NL4-3 pseudovirus entry, relative to T-20", "value": 1345, "unit": "folds"}, {"measurement": "inhibitory activity as folds of that of LP-40", "setting": "[4]; pseudovirus, relative to LP-40", "value": 63, "unit": "folds"}, {"measurement": "inhibitory activity against HIV-2 (in words)", "setting": "[5]", "value": "extremely potent inhibitory activity"}, {"measurement": "Tm value of the complex with N39", "setting": "[6]", "value": 63.3, "unit": "°C"}, {"measurement": "IC50", "setting": "[7]", "value": 0.041, "unit": "nM"}, {"measurement": "inhibitory activity against different subtypes of HIV-1 as folds of T-20", "setting": "[7]; relative to T-20, from average IC50", "value": 1010, "unit": "folds"}, {"measurement": "secondary structure of the inhibitor itself (in words)", "setting": "[8]", "value": "distinct helical structure"}]}
{"compound": "enfuvirtide", "values": [{"measurement": "inhibitory activity against SIV (in words)", "setting": "[1]", "value": "extremely weak"}, {"measurement": "IC50", "setting": "NL4-3WT pseudovirus", "value": 152, "unit": "nM"}, {"measurement": "maximum serum dilution multiple for inhibiting 50% of NL4-3 infectivity", "setting": "[9]; 2 hour after injection", "value": 45, "unit": "folds"}, {"measurement": "maximum serum dilution multiple for inhibiting 50% of NL4-3 infectivity", "setting": "[9]; 4 hour after injection", "value": 46, "unit": "folds"}, {"measurement": "inhibitory activity against T-20 resistant strains (in words)", "setting": "[3]", "value": "significantly increased by several folds"}, {"measurement": "IC50", "setting": "[4]; NL4-3D36G mutant, Example 4, read-out: IC50", "value": 13.7, "unit": "nM"}, {"measurement": "inhibitory activity against HIV-2 (in words)", "setting": "[5]", "value": "extremely weak"}, {"measurement": "helix content of the complex with N39", "setting": "[6]", "value": 48.6, "unit": "%"}, {"measurement": "IC50", "setting": "[7]", "value": 41.4, "unit": "nM"}, {"measurement": "secondary structure of the inhibitor itself (in words)", "setting": "[8]", "value": "irregular disorder structure"}]}
